Reference: ChEMBL document CHEMBL1201862, “PubChem BioAssay data set” (2004)
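Where inhibition never reached the appropriate level, the endpoint shown equals the highest concentration tested. Otherwise, values were interpolated linearly from a five-concentration, 48-hour dose response in 96-well plates. At the GI50, growth is halved.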 Activity calls are given as the source filed them. No stated cut-off is given here; in the data, active = GI50 up to about 1.1 µM and inactive = higher.

How the values were obtained:
Assay in all cases: NCI-60 cell line screen, 48 h
CCRF-CEM = system: CCRF-CEM
OVCAR-4 = system: OVCAR-4
OVCAR-5 = system: OVCAR-5
SNB-19 = system: SNB-19
DU-145 = system: DU-145
MCF7 = system: MCF7
NCI-H522 = system: NCI-H522
SK-MEL-5 = system: SK-MEL-5
SW-620 = system: SW-620
NCI-H460 = system: NCI-H460
NCI-H23 = system: NCI-H23
SK-OV-3 = system: SK-OV-3
OVCAR-3 = system: OVCAR-3
HCT-15 = system: HCT-15
SF-268 = system: SF-268
HOP-62 = system: HOP-62
HOP-92 = system: HOP-92
MOLT-4 = system: MOLT-4
HL-60 = system: HL-60

| Compound | GI50 (CCRF-CEM) | GI50 (OVCAR-4) | GI50 (OVCAR-5) | GI50 (SNB-19) | GI50 (DU-145) | GI50 (MCF7) | GI50 (NCI-H522) | GI50 (SK-MEL-5) | GI50 (SW-620) | GI50 (NCI-H460) | GI50 (NCI-H23) | GI50 (SK-OV-3) | GI50 (OVCAR-3) | GI50 (HCT-15) [µM] | GI50 (SF-268) | GI50 (HOP-62) | GI50 (HOP-92) | GI50 (MOLT-4) | GI50 (HL-60) |
| --- | --- | --- | --- | --- | --- | --- | --- | --- | --- | --- | --- | --- | --- | --- | --- | --- | --- | --- | --- |
| CCOc1cc(-c2nc3cc(F)ccc3s2)ccc1O | 0.6 µM (active) | 26.2 µM (inactive) | 18.7 µM (inactive) | 16.5 µM (inactive) | 17.6 µM (inactive) | 5.64 µM (inactive) | 11.5 µM (inactive) | 16.6 µM (inactive) | 19.4 µM (inactive) | 17.3 µM (inactive) | 18 µM (inactive) | 18.7 µM (inactive) | 18.5 µM (inactive) | 14.9 | 15.7 µM (inactive) | – | – | – | – |
| COC(=O)[C@H](CCSC)NC(=O)c1ccc(CNC(=O)/C(C)=C/c2ccccc2)cc1 | > 100 µM (inactive) | 31.1 µM (inactive) | 97.1 µM (inactive) | 24.7 µM (inactive) | 37.9 µM (inactive) | 80.2 µM (inactive) | 10.8 µM (inactive) | 34.8 µM (inactive) | 47 µM (inactive) | 26.6 µM (inactive) | 45.8 µM (inactive) | 39.4 µM (inactive) | 60.8 µM (inactive) | > 100 | 25.8 µM (inactive) | 21.8 µM (inactive) | 25.8 µM (inactive) | > 100 µM (inactive) | – |
| CCN1C[C@]2(C)CC[C@H](O)C34C1C(C[C@@H]32)[C@@]1(O)CC[C@H]2C[C@@H]4[C@@H]1[C@H]2O | > 100 µM (inactive) | > 100 µM (inactive) | > 100 µM (inactive) | > 100 µM (inactive) | – | – | > 100 µM (inactive) | > 100 µM (inactive) | > 100 µM (inactive) | > 100 µM (inactive) | > 100 µM (inactive) | > 100 µM (inactive) | > 100 µM (inactive) | > 100 | > 100 µM (inactive) | > 100 µM (inactive) | > 100 µM (inactive) | > 100 µM (inactive) | > 100 µM (inactive) |
| N#Cc1ccccc1/C=N/O | > 50.8 µM (inactive) | > 100 µM (inactive) | > 100 µM (inactive) | > 100 µM (inactive) | – | – | > 100 µM (inactive) | > 100 µM (inactive) | > 36.9 µM (inactive) | > 59.2 µM (inactive) | > 100 µM (inactive) | > 100 µM (inactive) | > 100 µM (inactive) | > 41 | > 100 µM (inactive) | > 100 µM (inactive) | > 100 µM (inactive) | > 100 µM (inactive) | > 44.4 µM (inactive) |
| O=C(O)c1cccc(SSc2cccc(C(=O)O)c2)c1 | 28.8 µM (inactive) | > 100 µM (inactive) | > 100 µM (inactive) | > 100 µM (inactive) | > 100 µM (inactive) | – | 58.1 µM (inactive) | > 100 µM (inactive) | > 100 µM (inactive) | > 100 µM (inactive) | > 100 µM (inactive) | > 100 µM (inactive) | > 100 µM (inactive) | > 100 | > 100 µM (inactive) | > 100 µM (inactive) | > 100 µM (inactive) | > 100 µM (inactive) | > 100 µM (inactive) |
| CCOC(=O)CCC(NC(=O)c1ccc(NCc2ccc3nc(-c4ccccc4)c(Cl)nc3c2)c2ccccc12)C(=O)OCC (configuration not stated) | – | > 100 µM (inactive) | > 100 µM (inactive) | > 100 µM (inactive) | > 100 µM (inactive) | 43.5 µM (inactive) | 50.9 µM (inactive) | 9.14 µM (inactive) | > 100 µM (inactive) | > 100 µM (inactive) | 58.1 µM (inactive) | > 100 µM (inactive) | > 100 µM (inactive) | > 100 | > 100 µM (inactive) | > 100 µM (inactive) | > 100 µM (inactive) | 0.977 µM (active) | – |
